Assay results reported in patent US20080051453A1, “Sorbic acid analog co-crystals” (priority 2006, published 2008).

Assay: Pharmacokinetic parameters in male cynomolgus monkeys after nasogastric gavage (suspension) or oral (tablet) administration
Assay type: in vivo
Conditions: for mean AUC relative to the suspension formulation / mean Cmax relative to the suspension formulation: oral, male cynomolgus monkeys, N=4/group
Excerpt: Pharmacokinetic Parameters and Summary Statistics for Male Cynomolgus Monkeys Following Nasogastric Gavage (2% Pluronic F108 in OraPlus Suspension) or Oral (Tablet Formulations) Administration (N=4/group)

[1] = "in situ" sorbic acid cocrystal/physical blend tablet (first mention, % CV~50-60)
[2] = tablet printed again as "in situ" sorbic acid cocrystal/physical blend tablet (second mention, % CV~30-45)

CC(=O)Nc1nc2c(Oc3cc(-c4ccc(C(F)(F)F)cc4)ncn3)cccc2s1 [Example 4, N-(4-(6-(4-(trifluoromethyl)phenyl)pyrimidin-4-yloxy)benzo[d]thiazol-2-yl)acetamide freebase]
mean AUC relative to the suspension formulation of Example 4 (cynomolgus monkey, in vivo, po): 17-19%
mean Cmax relative to the suspension formulation of Example 4 (cynomolgus monkey, in vivo, po): 17-19%

N-(4-(6-(4-(trifluoromethyl)phenyl)pyrimidin-4-yloxy)benzo[d]thiazol-2-yl)acetamide sorbic acid co-crystal [Example 5]
mean AUC relative to the suspension formulation [1]: 52-63%
mean Cmax relative to the suspension formulation [1]: 52-63%
mean AUC relative to the suspension formulation [2]: approximately 65%
mean Cmax relative to the suspension formulation [2]: approximately 65%
